For this experiment, the system named is outwardly rectifying whole-cell currents of C. elegans body wall muscles. Briefly: Whole-cell patch clamp recordings from cultured myo-3::GFP-expressing body wall muscle cells. The experiment is classed as cell-based. Particulars: 20 mM TEA, 3 mM 4-AP. Here is the method: FIGS. 3A-3C—Whole-cell recordings from C. elegans body wall muscles. […] Holding potential =−80 mV. […] Values are means±S.E. (n=8). […] Steady-state currents in the presence and absence of the drugs were measured at +80 mV. Drug effects were reversible. Values are means±S.E. (n=3-5).
Electrophysiology. Cells are patch clamped using either the conventional whole-cell mode or perforated patch method. Initially, whole-cell measurements are performed using “physiological” pipette and bath solutions. The composition of C. elegans extracellular and intracellular fluids is currently unknown. Ascaris bath Ringer's (Richmond & Jorgenson, 1999) and conventional high K^+, low Na^+ and Cl^− pipette solutions are used. Standard voltage clamp protocols are used to assess the voltage-dependence of channels responsible for whole-cell currents.
For these experiments, the inventors mimicked the experimental protocol and bath and pipette solutions used recently for in vivo patch clamp studies of C. elegans body wall muscles (Richmond et al., 1999). When cultured body muscles were patch clamped with a pipette solution containing 120 mM KCl (Richmond et al., 1999), slowly inactivating, strongly outwardly rectifying currents were observed (FIG. 3). These currents were inhibited 40% by 20 mM TEA and 85% by 20 mM TEA plus 3 mM 4-aminopyridine (4-AP). […]

Data on one molecule can be found in patent US20020182590A1, “Determining protein function in cell culture using RNA interference” (Vanderbilt University, priority 2001, published 2002).

In the case of `CC[N+](CC)(CC)CC` [TEA], the “reversibility of drug effects on currents” value is given as “reversible”. Moreover, the “inhibition of whole-cell currents” value (bath addition, steady-state currents at +80 mV, pipette 120 mM KCl) is given as 40%.
